According to publication PMC10100900, “Virtual Screening and In Vitro Experimental Verification of LuxS Inhibitors for Escherichia coli O157:H7” (Microbiology Spectrum, 2023):
pIC50, pKd: −log10 of the molar value. Like-named read-outs stand apart in the source and are kept apart here.

How the values were obtained:
[1] = molecular target: T1, LuxS of E. coli (Escherichia coli O157:H7, UniProt Q8X902); test: AI-2 bioluminescence assay (V. harveyi BB170 reporter) of AI-2 production; assay type: cell-based; details: E. coli O157:H7 cultured 16 h with inhibitor, supernatant read with V. harveyi BB170
T1 construct: endogenous in cells; host or cells: E. coli O157:H7 (ATCC 43895)
T1 sequence (Q8X902 2-171): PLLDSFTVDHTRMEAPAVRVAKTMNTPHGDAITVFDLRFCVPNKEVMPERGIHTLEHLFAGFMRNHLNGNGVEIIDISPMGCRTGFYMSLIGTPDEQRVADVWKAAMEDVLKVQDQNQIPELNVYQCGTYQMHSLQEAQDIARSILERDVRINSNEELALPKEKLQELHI

[2] = molecular target: T2, LuxS (Escherichia coli O157:H7, UniProt Q8X902); test: Surface plasmon resonance (BIAcore T200) binding
T2 sequence (Q8X902 2-171): T1 sequence (Q8X902 2-171)
Method: The binding affinity of the three compounds and LuxS was assessed by SPR assay using a BIAcore T200 (GE Healthcare, Pittsburgh, PA) ([64]). The LuxS protein was immobilized on a CM5 sensor chip with the final immobilization levels of 7,582.4 resonance units (RU). The running buffer used in the study was 1.0× phosphate-buffered saline containing detergent (PBS-P^+; pH 7.4) and 5% (vol/vol) dimethyl sulfoxide. For each binding cycle, the compound was injected for 120 s with a dissociation time of 180 s. A series of compound concentrations (0.94, 1.88, 3.75, 7.5, 15, and 30 μM) were injected for analysis, with furanone C30 as a positive control. Eventually, data were analyzed by Biacore evaluation software, whereas the equilibrium dissociation constant (KD = Kd/Ka) was calculated by curve fitting with a 1:1 binding model.

[3] = system: E. coli O157:H7; test: Growth, microbroth dilution assay (OD600); assay type: cell-based, Escherichia coli O157:H7; details: 6.25 to 100 μM, 24 h, compared to the control
Method: As described for previous protocols, growth and metabolic activity were evaluated by the broth dilution method and an alamarBlue assay ([65], [66]). Briefly, 96-well plates were seeded with bacterial suspension (OD600 = 0.01) containing different concentrations of hit compounds and incubated at 37°C for 24 h. At 600 nm, the absorbance was measured using the Multiskan Go Reader (Thermo Fisher Scientific, USA).

[4] = system: Caco-2 cells; test: Cytotoxicity, CCK-8 assay; assay type: cell-based; details: 24 h
Method: The cytotoxicity of hit compounds was assessed by a CCK-8 assay in Caco-2 cells. At 37°C, Caco-2 cells (1 × 10^5 cells/mL) were seeded in a 96-well plate for 24 h. Further, different concentrations of hit compounds were added to 96-well plates at final concentrations of 6.25, 12.5, 25, 50, and 100 μM. After incubation for 24 h, the plate was incubated at 37°C for 1 h with 10 μL of CCK-8 (MCE, China). A Multiskan Go Reader (Thermo Fisher Scientific) was used to measure the absorbance at 450 nm.

[5] = system: E. coli O157:H7 biofilm; test: Biofilm formation, crystal violet (CV) staining; assay type: cell-based, Escherichia coli O157:H7; details: 50 μM, 24 h
Method: Based on previous studies, CV staining was used to assess biofilm formation ([67]). The overnight cultured E. coli O157:H7 was diluted to OD600 of 0.01. The diluted E. coli suspensions were mixed with different concentrations of hit compounds and incubated at 37°C for 24 h. The plate was washed three times using PBS (pH 7.2) before it was fixed with methanol for 30 min. After staining for 30 min with CV, the plates were rinsed with distilled water and dried at 55°C. Finally, the CV attached to wells was dissolved in 95% ethanol. The absorbance at 570 nm was then measured using a Multiskan Go Reader.

[6] = system: luxS gene; assay type: cell-based, E. coli
[7] = system: E. coli O157:H7; test: Metabolic activity, alamarBlue assay; details: 6.25 to 100 μM, 24 h, compared to the control
[8] = IC50, AI-2 bioluminescence assay

Row | SMILES | pIC50 [1, 8] | also measured
1 | O=C(NCCN1CCN(c2ccccc2F)CC1)c1cc2ccc3cccnc3c2[nH]1 [E950-0198] | 4.51 | –
2 | O=C(NCc1ccc2c(c1)CCN2C(=O)c1ccccc1)c1ccc(Cl)cc1 [G883-0595] | 4.73 | –
3 | O=C(NCc1ccc2c(c1)CCN2C(=O)c1ccc(F)cc1)c1cc2ccccc2[nH]1 [G883-0849] | 4.66 | –
4 | O=C(NCC1CCN(Cc2ccc(Cl)cc2)CC1)c1n[nH]c2c1COc1ccccc1-2 [G365-0523] | 4.91 | –
5 | O=C(N/N=C/c1ccc(O)c(O)c1)c1cc(-c2ccc3ccccc3c2)n[nH]1 [3254-3286] | 5.12 | pKd [2]: 4.73; effect on growth of E. coli [3]: no significant effect; cytotoxicity to Caco-2 cells ([4]; 6.25 to 100 μM): nontoxic; biofilm formation, increased by about [5]: ~81.12%; suppression of the expression of LuxS [6]: ~57.4%; effect on metabolic activity of E. coli [7]: no significant effect
6 | COc1cccc(NC(=O)CSCc2cc(=O)c3ccccc3[nH]2)c1 [G751-0153] | 4.77 | –
7 | Cc1ccc(C(=O)N2CCc3cc(CNC(=O)c4ccc(C#N)cc4)ccc32)cc1 [G883-0304] | 4.72 | –
8 | CCOc1ccc(NCC(=O)N/N=C/c2c[nH]c3ccccc23)cc1 [1761-1352] | 4.53 | –
9 | CSc1ccc(CNC(=O)C2=Cc3cc(-c4ccccc4)ccc3OC2)cc1 [L449-1159] | – | pIC50 ([1]; AI-2 bioluminescence assay): 5.06; biofilm formation, increased by about [5]: about 75.4%
10 | O=C1C=C(Br)/C(=C/Br)O1 [furanone C30, reference compound] | – | pKd ([2]; LuxS immobilized on CM5 chip, PBS-P+ pH 7.4, 5% DMSO, 1:1 binding model, read-out: equilibrium dissociation constant (KD)): 6.46
11 | Cc1cc(CNC(=O)Nc2cccc3c2CCCC3)c(C)n1-c1ccccc1 [E983-1808] | 4.66 | –
12 | COc1ccc(C(=O)Nc2cc(NC(=O)c3cc4ccccc4[nH]3)ccc2OC)cc1 [F603-0744] | 4.91 | –
13 | O=C(NC1CCN(Cc2ccccc2)CC1)c1ccc(-c2cc(N3CCCC3)ncn2)cc1 [L010-0050] | 4.69 | –
14 | CCc1ccc(NC(=O)CSCc2cc(=O)c3cc(CC)ccc3[nH]2)cc1 [G751-5495] | 4.61 | –
15 | Cc1[nH]c(C(=O)NC2CCCCC2)c(C)c1S(=O)(=O)N1CCCCCC1 [F379-1612] | 4.58 | –
16 | CCCn1cnc2cc(CNC(=O)c3cc4cc(Cl)ccc4[nH]3)ccc21 [M414-3326] | – | pIC50 ([1]; AI-2 bioluminescence assay): 5.02; pKd ([2]; read-out: equilibrium dissociation constant (KD), LuxS immobilized on CM5 chip, PBS-P+ pH 7.4, 5% DMSO, 1:1 binding model): 5.72; effect on growth of E. coli [3]: no significant effect; cytotoxicity to Caco-2 cells ([4]; 6.25 to 100 μM): nontoxic; biofilm formation, increased by about [5]: ~53.6%; suppression of the expression of LuxS [6]: about 59.9%; effect on metabolic activity of E. coli [7]: no significant effect

Row | SMILES | pIC50 [1, 8] | also measured
17 | CSc1ccc(CNC(=O)c2cccc(-c3cnc(N4CCCC4)nc3)c2)cc1 [L368-0079] | – | pIC50 ([1]; AI-2 bioluminescence assay): 5.15; biofilm formation, increased by about [5]: ~76.8%
18 | CCCc1c(C)c2ccc(OC(=O)CNC(=O)c3ccccc3)cc2oc1=O [Y040-2389] | 4.89 | –
19 | NC1=C(c2nc3ccccc3s2)C(=O)CN1c1cccc(C(=O)NCc2ccccc2)c1 [F187-0533] | 4.87 | –
20 | O=C(NCc1nc2ccccc2[nH]1)c1ccccc1 [0180-0358] | 4.65 | –
21 | O=C(NCCN1CCN(c2cccc(Cl)c2)CC1)c1cc2ccc3cccnc3c2[nH]1 [E950-0195] | 4.48 | –
22 | CC(C)C(=O)N1CCc2cc(CNC(=O)c3cc4ccccc4[nH]3)ccc21 [G883-2010] | 4.60 | –
23 | Cc1ccc(C(=O)NCc2ccc3c(c2)CCN3C(=O)c2ccc(Cl)cc2)cc1 [G883-0476] | 4.73 | –
24 | COc1ccc2[nH]c(C(=O)NC3CCC(CN4Cc5ccccc5C4=O)CC3)c(C)c2c1 (stereo not shown) [D753-0186] | 4.72 | –
25 | CCC(=O)N1CCc2cc(-c3ccc(C(=O)NCc4ccc(N(C)C)cc4)cc3)ccc21 [L413-0180] | 5.39 | pKd [2]: 4.11; effect on growth of E. coli [3]: no significant effect; cytotoxicity to Caco-2 cells ([4]; 100 μM): slightly cytotoxic; cytotoxicity to Caco-2 cells ([4]; 6.25 to 50 μM): nontoxic; biofilm formation, increased by about [5]: ~51.4%; suppression of the expression of LuxS [6]: ~65.1%; effect on metabolic activity of E. coli [7]: no significant effect
26 | CCc1ccc(NC(=O)CSCc2cc(=O)c3cccc(F)c3[nH]2)cc1 [G751-5415] | 4.58 | –
27 | O=C(NCc1nc(-c2ccc3c(c2)ncn3C2CCCC2)no1)c1ccccc1 [G945-0601] | 4.87 | –
28 | Cc1ccc2ccc3cc(C(=O)NCCN4CCN(c5cccc(Cl)c5)CC4)[nH]c3c2n1 [E941-0195] | 4.55 | –
29 | O=C(NCc1ccc2c(c1)CCN2C(=O)c1ccccc1)c1ccc(Br)cc1 [G883-0627] | 4.71 | –
30 | CCC(=O)N1CCc2cc(-c3ccc(C(=O)NC4CCN(Cc5ccccc5)CC4)cc3)ccc21 [L413-0101] | 4.87 | –
31 | Cc1ccc(C(=O)N2CCc3cc(CNC(=O)c4ccc(Br)cc4)ccc32)cc1 [G883-0331] | 4.82 | –
